In publication PMC7806714, “Statins for the prevention of proliferative vitreoretinopathy: cellular responses in cultured cells and clinical statin concentrations in the vitreous” (Scientific Reports, 2021):
One block for each molecule: values may come before it.

Experiments:
[1] = UPLC-MS/MS statin and metabolite concentrations in vitreous of vitrectomy patients on oral statins; type: in vivo, human
Protocol: The study was conducted according to the tenets of the Declaration of Helsinki, and was approved by the Institutional Review Board and Ethical committee of Helsinki University Central Hospital. Twenty patients were enrolled; fifteen with per oral statin treatment and five controls. Signed informed consent was obtained from each participant prior to the vitreous sampling. Confidentiality of the patient records was maintained when the clinical data were entered into a computer-based standardized data entry for analysis. Sixteen patients were being operated due to PDR; of these, five patients had also Tractional Retinal Detachment (TRD); two patients were operated due to RRD, one due to age-related epiretinal fibrosis (pucker), and one due to a macular hole (Supplementary Table S2). […] All vitrectomies were performed by the recruiting vitreoretinal surgeon (SL). […] The samples were collected by manual aspiration into a syringe via the vitrectomy with the cutting function activated. Sample aliquots were transferred into sterile 1.5 mL microcentrifuge tubes (Freemont, CA, USA) and immediately frozen and stored at − 70 °C until laboratory analysis. […] All reference compounds and internal standards were purchased from Toronto Research Chemicals (Toronto, Canada). Samples (100 µl) were divided into two aliquots and kept at − 80 °C prior to analysis. […] Homogenizer blocks were pre-cooled by placing them at − 20 °C. […] Supernatants (120 µl) were pipetted into analytical vials and the concentrations of the statins were measured with Ultra-high Pressure Liquid Chromatography—tandem Mass Spectrometry (UPLC-MS/MS) technique. The same pre-treatment protocol was used to prepare calibration curves and quality control samples but homogenized and filtered porcine vitreous were used as a matrix instead of human vitreous. A minimum of six calibration curve concentrations was used for quantitation of the compounds. Two parallel calibration curve sets included all eleven analytes and four deuterated internal standards. Three quality control samples in three parallel sets were used to validate the method. The linear range varied from approximately 0.004 to 10 ng/mL depending on the analyte. Limit of quantitation was set to the smallest calibration curve point of each drug. Each sample was analysed twice and the average of these values was designated as the concentration of the sample. […] For rosuvastatin, two metabolites were analysed: rosuvastatin lactone and N-desmethyl rosuvastatin lactone. Rosuvastatin D6 was used as an internal standard. The parent drug, its metabolites and internal standard were analysed from the same sample in each case. Liquid chromatography separation was carried out using a Waters Acquity UPLC instrument (Waters, MA, USA) coupled with Waters HSS T3 C18 (2.1 × 100 mm, 1.8 µm) column at 40 °C. The mobile phase consisted of 0.1% formic acid in ultrapure water (A) and 100% of LC–MS grade acetonitrile (B). […] The flow rate was set to 0.3 mL/min and injection volume 1.5 µl. After every three samples, a solvent blank was run to control for any carry over. Mass spectrometry measurements were carried out using a Waters Xevo Triple Quadruple mass spectrometer (TQ-S) equipped with an ESI source. […] The source parameters were as follows: Capillary voltage 2.8 kV, source temperature 150 °C and desolvation temperature 500 °C. Nitrogen (Aga, Helsinki, Finland) was used as a desolvation gas (800 l/h), a cone gas (150 l/h) and a nebulizer gas (7 bar). Argon (Aga, Helsinki, Finland) was used as a collision gas (0.15 mL/min). The Multiple Reaction Monitoring (MRM) mode was used for quantification. Precursor and fragment ions, as well as other optimized parameters are listed in Supplementary Table S3.

[2] = tested on: ARPE-19 cells; test: LDH release assay (cell membrane integrity); type: cell-based, human; settings: with and without LPS; Supplementary Fig. S3
Protocol: Cell viability was assessed by determining the amount of LDH enzyme from culture media using a commercial kit (Promega Corporation, USA) according to the manufacturer’s protocol. This assay provides information about the integrity of the plasma membranes of the cells (high LDH levels meaning cell damage). In addition, the cell viability was examined with MTT assay, as described previously. In viable cells, the mitochondrial succinate dehydrogenase enzyme can metabolize the MTT dye into formazan that absorbs light at the 550 nm wavelength.

[3] = tested on: IL-6; test: ELISA of LPS-induced IL-6 release from ARPE-19 cells; settings: then LPS
[4] = Calculated average steady-state plasma (Eq. 1) and expected vitreal concentrations (Eq. 3); set-up: species or system human; settings: for Calc. Cv: expected vitreal, Eq. 3; for Css,av: plasma, Eq. 1
Protocol: The concentrations of statins and their metabolites in the vitreous were analysed (see above) and expressed as ng/mL concentrations. These concentrations were compared to published statin concentrations in plasma. […] Maximum concentrations in plasma and the area under the concentration vs time curve values were collected. The expected average statin concentrations in plasma during multiple dose treatment were calculated for the doses that the patients received in our study (Eq. 1):1 Css,av=AUCsingledose/τ where τ is the time interval between doses. The drug concentrations in plasma (C, Cmax, Css, av) include both unbound (Cu) and protein-bound drug. The values for protein binding were obtained from the summary of drug product characteristics for each statin. The free fraction of statin in plasma was calculated based on Eq. (2):2 fu=CuC
The expected drug concentrations in the patients’ vitreous samples were calculated according to Eq. (3)3 Cv=fu×Css,av
Equation (3) assumes that the vitreal drug concentrations equilibrate with the unbound drug concentrations in plasma, because only free drug is expected to cross the blood-ocular barriers.

[5] = tested on: MCP-1; test: ELISA of LPS-induced MCP-1 release from ARPE-19 cells; settings: 24 h prior to LPS
[6] = tested on: IL-8; test: ELISA of LPS-induced IL-8 release from ARPE-19 cells; settings: 24 h prior to LPS
[7] = tested on: PVR rabbit model; set-up: method as in PMID 18599521; settings: four intravitreal injections of 15 µM at intervals of two days; end point 28 days; ref [16]; cited from earlier work
[8] = tested on: PVR rabbit model; test: Preclinical PVR rabbit model with intravitreal simvastatin (Kawahara et al.); type: in vivo; settings: Eq. 5; intravitreal dose 0.63 µg, dosing interval 48 h, rabbit CLivt 0.982 mL/h; study data of [16]
[9] = free fraction of drug in plasma; ref summary of product characteristics document; cited from earlier work
[10] = patient 352, PDR, TDR, oral atorvastatin 20 mg
[11] = patient 355, PDR, oral atorvastatin 10 mg
[12] = patient 368, PDR, oral atorvastatin 40 mg
[13] = patient 429, RRD, oral atorvastatin 20 mg
[14] = patient 430, PDR, oral atorvastatin 20 mg
[15] = patient 397, PDR, oral rosuvastatin 20 mg
[16] = patient 412, PDR, oral rosuvastatin 20 mg
[17] = patient 347, PDR, TDR, oral simvastatin 40 mg
[18] = patient 370, PDR, oral simvastatin 40 mg
[19] = patient A101, PDR, TDR, oral simvastatin 40 mg
[20] = oral 40 mg/d, patients' vitreous

Concentration in vitreous sample [1, 10]: 0.023 ng/mL
Concentration in vitreous sample [1, 11]: 0.029 ng/mL
Concentration in vitreous sample [1, 12]: 0.063 ng/mL
Concentration in vitreous sample [1, 13]: 0.023 ng/mL
Concentration in vitreous sample [1, 14]: 0.032 ng/mL
SMILES: CC(C)c1c(C(=O)Nc2ccccc2O)c(-c2ccccc2)c(-c2ccc(F)cc2)n1CCC1CC(O)CC(=O)O1 (stereo not shown) [2-OH Atv lactone, 2-OH atorvastatin lactone]

Concentration in vitreous sample [1, 10]: 0.047 ng/mL
Concentration in vitreous sample [1, 11]: 0.071 ng/mL
Concentration in vitreous sample [1, 12]: 0.176 ng/mL
Concentration in vitreous sample [1, 14]: 0.099 ng/mL
SMILES: CC(C)c1c(C(=O)Nc2ccccc2O)c(-c2ccccc2)c(-c2ccc(F)cc2)n1CCC(O)CC(O)CC(=O)O (stereo not shown) [2-OH Atv, 2-OH atorvastatin]

Concentration in vitreous sample [1, 11]: 0.012 ng/mL
Concentration in vitreous sample [1, 12]: 0.039 ng/mL
Concentration in vitreous sample [1, 13]: 0.008 ng/mL
Concentration in vitreous sample [1, 14]: 0.017 ng/mL
SMILES: CC(C)c1c(C(=O)Nc2ccc(O)cc2)c(-c2ccccc2)c(-c2ccc(F)cc2)n1CCC1CC(O)CC(=O)O1 (stereo not shown) [4-OH Atv lactone, 4-OH atorvastatin lactone]

Concentration in vitreous sample [1, 10]: 0.022 ng/mL
Concentration in vitreous sample [1, 11]: 0.057 ng/mL
Concentration in vitreous sample [1, 12]: 0.209 ng/mL
Concentration in vitreous sample [1, 13]: 0.022 ng/mL
Concentration in vitreous sample [1, 14]: 0.12 ng/mL
SMILES: CC(C)c1c(C(=O)Nc2ccc(O)cc2)c(-c2ccccc2)c(-c2ccc(F)cc2)n1CC[C@@H](O)C[C@@H](O)CC(=O)O [4-OH Atv, 4-OH atorvastatin]

Calc. Cv ([4]; 10 mg/d, India study [22]): 0.046 ng/mL
Calc. Cv ([4]; 10 mg/d, Jordan study [21]): 0.024 ng/mL
Calc. Cv ([4]; 10 mg/d, Turkey study [23]): 0.098 ng/mL
Calc. Cv ([4]; 20 mg/d, China study [25]): 0.037 ng/mL
Calc. Cv ([4]; 20 mg/d, UK study [26]): 0.153 ng/mL
Calc. Cv ([4]; 20 mg/d, USA study [24]): 0.049 ng/mL
Calc. Cv ([4]; 40 mg/d, Finland study [28]): 0.045 ng/mL
Calc. Cv ([4]; 40 mg/d, Finland study [29]): 0.051 ng/mL
Calc. Cv ([4]; 40 mg/d, USA study [27]): 0.082 ng/mL
Css,av ([4]; 10 mg/d, Jordan study [21]): 0.49 ng/mL
Css,av ([4]; 20 mg/d, China study [25]): 1.85 ng/mL
Css,av ([4]; 20 mg/d, UK study [26]): 7.63 ng/mL
Css,av ([4]; 40 mg/d, Finland study [28]): 2.26 ng/mL
Css,av ([4]; 40 mg/d, Finland study [29]): 2.56 ng/mL
Css,av ([4]; 40 mg/d, USA study [27]): 4.11 ng/mL
SMILES: CC(C)c1c(C(=O)Nc2ccccc2)c(-c2ccccc2)c(-c2ccc(F)cc2)n1CC[C@@H](O)C[C@@H](O)CC(=O)O [Atorvastatin]
Tolerance by ARPE-19 cells (LDH and MTT) [2]: well tolerated
times lower secretion of IL-6 compared to the solvent control ([3]; 5 µM pre-treatment for 24 h): 1.5 times
times lower secretion of IL-6 compared to the solvent control ([3]; 10 µM pre-treatment for 24 h): 1.6 times
LPS-induced release of MCP-1 ([5]; 5 µM): reduced
LPS-induced release of MCP-1 ([5]; 10 µM): reduced
LPS-induced release of IL-8 ([6]; 5 µM): reduced
LPS-induced release of IL-8 ([6]; 10 µM): reduced

Concentration in vitreous sample [1, 10]: 0.012 ng/mL
Concentration in vitreous sample [1, 11]: 0.035 ng/mL
Concentration in vitreous sample [1, 12]: 0.089 ng/mL
Concentration in vitreous sample [1, 13]: 0.016 ng/mL
Concentration in vitreous sample [1, 14]: 0.062 ng/mL
SMILES: CC(C)c1c(C(=O)Nc2ccccc2)c(-c2ccccc2)c(-c2ccc(F)cc2)n1CC[C@@H]1C[C@@H](O)CC(=O)O1 [Atv lactone, atorvastatin lactone]

Concentration in vitreous sample ([1]; patient 371, PDR, dose 0* (control without reported statin treatment)): 0.019 ng/mL
Concentration in vitreous sample [1, 15]: 0.013 ng/mL
Concentration in vitreous sample [1, 16]: 0.026 ng/mL
SMILES: CC(C)c1nc(NS(C)(=O)=O)nc(-c2ccc(F)cc2)c1/C=C/[C@@H](O)C[C@@H](O)CC(=O)O [N-desmethyl Rsv, n-desmethyl rosuvastatin]

Concentration in vitreous sample [1, 15]: 0.011 ng/mL
Concentration in vitreous sample [1, 16]: 0.025 ng/mL
SMILES: CC(C)c1nc(N(C)S(C)(=O)=O)nc(-c2ccc(F)cc2)c1/C=C/[C@@H]1C[C@@H](O)CC(=O)O1 [Rsv lactone, rosuvastatin lactone]

Concentration in vitreous sample [1, 17]: 0.039 ng/mL
Concentration in vitreous sample [1, 18]: 0.019 ng/mL
Concentration in vitreous sample [1, 19]: 0.006 ng/mL
SMILES: CCC(C)(C)C(=O)O[C@H]1C[C@@H](C)C=C2C=C[C@H](C)[C@H](CC[C@@H](O)C[C@@H](O)CC(=O)O)[C@H]21 [Sim acid, simvastatin acid]

Measured Cv Average [1, 20]: 0.048 ng/mL
Measured Cv Range (lower) [1, 20]: 0.027 ng/mL
Measured Cv Range (upper) [1, 20]: 0.073 ng/mL
Concentration in vitreous sample [1, 17]: 0.073 ng/mL
Concentration in vitreous sample [1, 18]: 0.044 ng/mL
Concentration in vitreous sample [1, 19]: 0.027 ng/mL
therapeutic Css, average in PVR rabbit model [8]: 13.3 ng/mL
SMILES: CCC(C)(C)C(=O)O[C@H]1C[C@@H](C)C=C2C=C[C@H](C)[C@H](CC[C@@H]3C[C@@H](O)CC(=O)O3)[C@H]21 [Simvastatin]
effect in preclinical PVR rabbit model [7]: Clear beneficial effects
